Assay results as given in patent US11802110B2, “2-amino-N-(arylsulfinyl)-acetamide compounds as inhibitors of bacterial aminoacyl-tRNA synthetase” (priority 2016, dated 2023).
≈ marks a conversion by molar mass, not a printed value.

Tests used:
E. Coli LeuRS = E. Coli LeuRS (Escherichia coli (strain K12), UniProt P07813); assay: Study 2 - Isothermal titration calorimetry (ITC); type: binding; conditions: 25° C., pH 7.5, mean ± SD
Description: Escherichia coli BL21(DE3) cells transformed with plasmid pQE-60 containing the open-reading frame sequence of one targeted aaRS (i.e., LeuRS) were induced with 1 mM IPTG (isopropyl β-D-1-thiogalactopyranoside) for 3 hours at 37° C. Bacterial cells were harvested and lysed with 20 mM HEPES (4-(2-hydroxyethyl)-1-piperazinylethane-sulfonic acid) (pH 7.5), 300 mM NaCl, 15 mM imidazole and 1 mM DTT (1,4-dithio-D-threitol). The pathogenic aaRS was first purified by nickel affinity standard chromatography. The eluted protein was concentrated and then further purified by gel filtration using 50 mM HEPES (pH 7.5), 150 mM NaCl buffer.
ITC studies were carried out using a Microcal ITC200 instrument (GE Healthcare). Protein concentration was determined by spectrophotometry by measuring the absorbance at 280 nm using a theoretical molar extinction coefficient of 169,140 M^−1cm^−1. Ligand stock solutions were prepared in DMSO at 62.5 mM concentration. The titrations were performed at 25° C. with 7.5-100 μM E. Coli LeuRS in 50 mM HEPES, 150 mM NaCl, pH 7.5 buffer containing 1% DMSO (v/v). The protein solution in the 280 μL sample cell was titrated with the inhibitor solution (diluted to 75-3000 μM in the same buffer as the protein) using 1-2 μL injections every 120-140 seconds. All titrations were repeated at least two times. To correct for heats of dilution and mixing, the final baseline consisting of small peaks of identical size at the end of each experiment was subtracted. The experimental data were fitted to a theoretical titration curve (one site model) using MicroCal Origin 7 SR4 software.
Note that Compounds R-4.1 and S-4.1 (in Table 15, below) correspond to Compounds V-i and V-ii (in Tables 13 and 14, above), respectively.

[1] = tested on: Acinetobacter baumannii B1931 clinical isolate; assay: Study 4 - MIC by broth micro-dilution (CLSI); type: cell-based; conditions: Acinetobacter baumannii
Description: (§1) Minimum Inhibitory Concentrations (MICs) were determined by the broth micro-dilution method performed according to Clinical Laboratory Standards Institute guidelines. For testing, 5 mg/mL DMSO solutions were prepared by dissolving solids in DMSO. Standard antibiotics were prepared according to CLSI guidelines as 5 mg/mL stock solutions. Upon DMSO stock solutions preparation, the working solutions in MH media were prepared by adding 38.4 μL of stock solution to 1461.6 μL of MH media. Out of these working solutions 100 μL were transferred to wells in the third column of 96-well assay plates. Assay plates were previously filled with 50 μL of MH media in all wells except for the wells in the third column. Upon compounds and antibiotics addition, 50 μL was transferred from the third to the fourth column, then from the fourth to the fifth and so on.
(§2) MIC value was determined by visual inspection of bacterial growth within 96-well plates. The first column in which there was no visible growth of bacteria was determined as MIC value for compound or antibiotic tested in that particular row. ATCC strains were used as reference strains for which there is a determined value of MIC values for standard antibiotics. The assay is considered valid when MIC values for standard antibiotics are within CLSI designated range for ATCC strain tested.

[2] = tested on: Enterobacter cloacae B1966 clinical isolate; assay: Study 4 - MIC by broth micro-dilution (CLSI); type: cell-based; conditions: Enterobacter cloacae
Description: as §1, §2

[3] = tested on: Escherichia coli ATCC 25922; assay: Study 4 - MIC by broth micro-dilution (CLSI); type: cell-based; conditions: Escherichia coli, ATCC25922
Description: as §1, §2

[4] = tested on: Haemophilus influenzae ATCC 49247; assay: Study 4 - MIC by broth micro-dilution (CLSI); type: cell-based; conditions: Haemophilus influenzae, ATCC49247; G = H. influenzae ATCC 49247; read-out: MIC
Description: as §1, §2

[5] = tested on: Klebsiella pneumoniae ATCC 700603; assay: Study 4 - MIC by broth micro-dilution (CLSI); type: cell-based; conditions: Klebsiella pneumoniae, ATCC700603
Description: as §1, §2

[6] = tested on: Pseudomonas aeruginosa ATCC 27853; assay: Study 4 - MIC by broth micro-dilution (CLSI); type: cell-based; conditions: Pseudomonas aeruginosa, ATCC27853
Description: as §1, §2

[7] = Human cell viability (cytotoxicity), ATP levels by CellTiter-Glo; type: cell-based; conditions: HepG2 cells (ATCC HB-8065), 24 hours incubation, read-out: IC50 (μg/mL), Cytotoxicity in HepG2 ATCC HB-8065 Cell Line
Description: Compounds were assessed for potential non-specific cytotoxic effects against a human hepatic cell line (HepG2 ATCC HB-8065). 96-well plates were seeded with HepG2 cells in concentration of 15,000 cells per well in 100 μL of MEM growth media completed with 1% NEAA and 1% sodium pyruvate. Border wells were filled with 100 μL of sterile PBS. Two days upon cells incubation, the compounds were added. Compound dilutions were prepared in 96-well V-bottom plate in pure DMSO. Growth media from 5 plates were aspirated and replaced with 98.7 μL of fresh growth media. 1.28 μL of compounds prepared in V-bottom plates were transferred with multichannel pipette into test plates (78.1× dilution). Final DMSO concentration was 1.28% per well. In control wells, 1.28 μL of DMSO was added in 98.7 μL of media. Compounds were tested in duplicates. Cells were incubated with compounds for 24 hours when cell viability was assessed by measuring ATP levels. ATP levels were measured by adding 50 μL of CellTiter-Glo reagent to each well and after 5 minutes of incubation luminescence was measured with SpectraMax i3. The potential effect of tested compounds on cell viability was determined by comparing the signal obtained in presence of different concentrations of the compounds with those obtained in the presence of DMSO only. The potential effects were then calculated and presented as IC50 values (μg/mL).

Chain of E. Coli LeuRS (P07813 whole entry): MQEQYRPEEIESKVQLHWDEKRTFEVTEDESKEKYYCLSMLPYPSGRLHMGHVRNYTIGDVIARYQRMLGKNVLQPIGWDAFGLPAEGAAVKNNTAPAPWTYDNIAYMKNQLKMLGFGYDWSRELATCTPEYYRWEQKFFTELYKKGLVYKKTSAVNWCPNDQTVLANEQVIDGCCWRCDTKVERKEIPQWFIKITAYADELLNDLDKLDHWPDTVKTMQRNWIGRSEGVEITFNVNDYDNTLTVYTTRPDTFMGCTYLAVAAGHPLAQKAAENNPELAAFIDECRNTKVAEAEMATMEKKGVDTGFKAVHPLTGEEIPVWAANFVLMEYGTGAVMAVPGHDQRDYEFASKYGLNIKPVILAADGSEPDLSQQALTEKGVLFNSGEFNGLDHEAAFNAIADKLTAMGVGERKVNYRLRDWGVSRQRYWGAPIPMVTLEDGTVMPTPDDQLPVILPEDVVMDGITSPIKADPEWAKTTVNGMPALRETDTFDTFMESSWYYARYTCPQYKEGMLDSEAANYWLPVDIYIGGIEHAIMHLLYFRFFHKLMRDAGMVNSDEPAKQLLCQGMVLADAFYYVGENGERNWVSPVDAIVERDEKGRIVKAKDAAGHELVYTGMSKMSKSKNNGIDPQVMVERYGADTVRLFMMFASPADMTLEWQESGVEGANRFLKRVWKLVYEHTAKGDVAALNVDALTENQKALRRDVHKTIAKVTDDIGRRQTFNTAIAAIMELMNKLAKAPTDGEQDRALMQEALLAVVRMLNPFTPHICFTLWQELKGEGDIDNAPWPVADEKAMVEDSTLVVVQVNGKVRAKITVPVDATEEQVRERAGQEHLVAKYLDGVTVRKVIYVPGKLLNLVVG

Compound | Kd (E. Coli LeuRS) | ΔG (E. Coli LeuRS) | ΔH (E. Coli LeuRS) | MIC [1] | MIC [2] | MIC [3] | MIC [4] | MIC [5] | MIC [6] | IC50 at 24 h [7]
COc1cccc([S+]([O-])NC(=O)C(N)CC(C)C)c1 (centres unmarked) [4.14] | 4.02 ± 0.38 nM | -11.45 ± 0.06 kcal/mol | -12.35 ± 0.04 kcal/mol | 32 µg/mL (≈ 113 µM) | 32 µg/mL (≈ 113 µM) | 8 µg/mL (≈ 28.1 µM) | 8 µg/mL (≈ 28.1 µM) | 16 µg/mL (≈ 56.3 µM) | 64 µg/mL (≈ 225 µM) | > 64 µg/mL
CC(C)CC(C)(N)C(=O)N[S+]([O-])c1ccccc1 (centres unmarked) [4.7] | 1820 ± 256 nM | -7.84 ± 0.09 kcal/mol | -1.66 ± 0.75 kcal/mol | – | – | – | – | – | – | > 64 µg/mL
CC(C)CC(N)C(=O)N[S+]([O-])c1cccc(F)c1 (centres unmarked) [4.11] | 2.17 ± 0.08 nM | -11.82 ± 0.04 kcal/mol | -16.22 ± 0.60 kcal/mol | 8 µg/mL (≈ 29.4 µM) | 4 µg/mL (≈ 14.7 µM) | 1 µg/mL (≈ 3.67 µM) | 4 µg/mL (≈ 14.7 µM) | 2 µg/mL (≈ 7.34 µM) | 64 µg/mL (≈ 235 µM) | > 64 µg/mL
CC(C)CC(N)C(=O)N[S+]([O-])c1cccs1 (centres unmarked) [4.41] | – | – | – | – | – | – | – | – | – | > 64 µg/mL
CC(C)CC(N)C(=O)N[S+]([O-])c1cccc(Br)c1 (centres unmarked) [4.15] | 10.6 ± 0.39 nM | -10.88 ± 0.03 kcal/mol | -10.74 ± 0.16 kcal/mol | 64 µg/mL (≈ 192 µM) | 32 µg/mL (≈ 96 µM) | 8 µg/mL (≈ 24 µM) | 8 µg/mL (≈ 24 µM) | 16 µg/mL (≈ 48 µM) | 64 µg/mL (≈ 192 µM) | > 64 µg/mL
COCc1cccc([S+]([O-])NC(=O)C(N)CC(C)C)c1 (centres unmarked) [4.23] | 17.5 ± 1.1 nM | -10.58 ± 0.03 kcal/mol | -7.06 ± 0.75 kcal/mol | – | – | – | – | – | – | –
CC(C)CC(N)C(=O)N[S+]([O-])c1cccc(Cl)c1 (centres unmarked) [4.12] | – | – | – | 16 µg/mL (≈ 55.4 µM) | 8 µg/mL (≈ 27.7 µM) | 2 µg/mL (≈ 6.93 µM) | 4 µg/mL (≈ 13.9 µM) | 4 µg/mL (≈ 13.9 µM) | 16 µg/mL (≈ 55.4 µM) | > 64 µg/mL
CC(C)CC(N)C(=O)N[S+]([O-])c1ccc2ccccc2c1 (centres unmarked) [4.40] | – | – | – | – | – | – | – | – | – | > 64 µg/mL
CC(C)CC(N)C(=O)N[S+]([O-])c1cccc2ccccc12 (centres unmarked) [4.39] | 12.8 ± 1.6 nM | -10.77 ± 0.08 kcal/mol | -9.29 ± 0.62 kcal/mol | 64 µg/mL (≈ 210 µM) | 64 µg/mL (≈ 210 µM) | 16 µg/mL (≈ 52.6 µM) | 8 µg/mL (≈ 26.3 µM) | 64 µg/mL (≈ 210 µM) | > 64 µg/mL | 46 µg/mL (≈ 151 µM)
CCC(C)C(N)C(=O)N[S+]([O-])c1ccccc1 (centres unmarked) [4.2] | – | – | – | – | – | – | – | – | – | > 32 µg/mL
CCC(N)C(=O)N[S+]([O-])c1cccc(F)c1 (centres unmarked) [4.10] | – | – | – | – | – | – | – | – | – | > 64 µg/mL
NC(C(=O)N[S+]([O-])c1ccccc1)c1ccccc1 (centres unmarked) [4.9] | – | – | – | – | – | – | – | – | – | > 64 µg/mL
CC(C)C[C@@H](N)C(=O)N[S+]([O-])c1ccccc1 (some centres unmarked) [4.6] | – | – | – | – | – | – | – | – | – | > 32 µg/mL
CC(C)CC(N)C(=O)N[S+]([O-])c1ccc(C(C)(C)C)cc1 (centres unmarked) [4.28] | – | – | – | – | – | – | – | – | – | > 64 µg/mL
CC(C)CC(N)C(=O)N[S+]([O-])c1cccc(C#N)c1 (centres unmarked) [4.19] | 3.35 ± 0.48 nM | -11.56 ± 0.09 kcal/mol | -8.49 ± 0.38 kcal/mol | 64 µg/mL (≈ 229 µM) | 8 µg/mL (≈ 28.6 µM) | 2 µg/mL (≈ 7.16 µM) | 8 µg/mL (≈ 28.6 µM) | 4 µg/mL (≈ 14.3 µM) | > 64 µg/mL | > 64 µg/mL
Cc1ccc([S+]([O-])NC(=O)C(N)CC(C)C)c(F)c1 (centres unmarked) [4.38] | – | – | – | – | – | – | – | – | – | > 64 µg/mL
CSCCC(N)C(=O)N[S+]([O-])c1ccccc1 (centres unmarked) [4.3] | – | – | – | – | – | – | – | – | – | > 64 µg/mL
CCCC(N)C(=O)N[S+]([O-])c1ccccc1 (centres unmarked) [4.4] | 159 ± 29.4 nM | -9.28 ± 0.11 kcal/mol | -9.06 ± 0.28 kcal/mol | – | – | – | – | – | – | > 64 µg/mL
Cc1cccc([S+]([O-])NC(=O)C(N)CC(C)C)c1 (centres unmarked) [4.13] | 6.62 ± 1.36 nM | -11.16 ± 0.12 kcal/mol | -8.69 ± 1.09 kcal/mol | 32 µg/mL (≈ 119 µM) | 32 µg/mL (≈ 119 µM) | 8 µg/mL (≈ 29.8 µM) | 16 µg/mL (≈ 59.6 µM) | 16 µg/mL (≈ 59.6 µM) | > 64 µg/mL | > 64 µg/mL
CC(C)C(N)C(=O)N[S+]([O-])c1ccccc1 (centres unmarked) [4.5] | – | – | – | – | – | – | – | – | – | > 32 µg/mL
NC(Cc1ccccc1)C(=O)N[S+]([O-])c1ccccc1 (centres unmarked) [4.8] | – | – | – | – | – | – | – | – | – | > 64 µg/mL
